# Tested on: Mycosphaerella arachidis
# Assay: Fungicidal activity against Cercospora arachidicola assessed as inhibition of mycelium growth at 50 mg/L after 72 hrs
# Type: functional
# Details: not given
row,Structure (SMILES),inhibition at 50 µg/mL
1,CCOCCOC(=O)/C(C#N)=C(/CC)NNc1cccc(Cl)c1Cl,24.2%
2,CCOCCOC(=O)/C(C#N)=C(/CC)NNc1cc(Cl)c(Cl)cc1Cl,21.3%
3,CCOCCOC(=O)/C(C#N)=C(\NNc1c(Cl)cc(Cl)cc1Cl)C(C)C,18.2%

# Tested on: HL-60
# Assay: Antitumor activity against human HL60 cells at 1 uM/L after 72 hrs by MTT assay
# Type: functional
# Details: HL-60, 72 h
row,Structure (SMILES),inhibition at 1 µM
1,CCOCCOC(=O)/C(C#N)=C(/CC)NNc1cccc(Cl)c1Cl,21.2%
2,CCOCCOC(=O)/C(C#N)=C(/CC)NNc1cc(Cl)c(Cl)cc1Cl,8.3%
3,CCOCCOC(=O)/C(C#N)=C(\NNc1c(Cl)cc(Cl)cc1Cl)C(C)C,0%

# Tested on: Bel-7402
# Assay: Antitumor activity against human Bel7402 cells at 1 uM/L after 72 hrs by MTT assay
# Type: functional
# Details: Bel-7402, 72 h
row,Structure (SMILES),inhibition at 1 µM
1,CCOCCOC(=O)/C(C#N)=C(/CC)NNc1cccc(Cl)c1Cl,11.6%
2,CCOCCOC(=O)/C(C#N)=C(/CC)NNc1cc(Cl)c(Cl)cc1Cl,0%
3,CCOCCOC(=O)/C(C#N)=C(\NNc1c(Cl)cc(Cl)cc1Cl)C(C)C,5.2%

# Tested on: Cucumis sativus
# Assay: Growth regulatory activity in cucumber assessed as root growth at 10 mg/L incubated in dark for 5 days
# Type: functional
# Details: not given
row,Structure (SMILES),Activity
1,CCOCCOC(=O)/C(C#N)=C(/CC)NNc1cccc(Cl)c1Cl,-12.7%
2,CCOCCOC(=O)/C(C#N)=C(/CC)NNc1cc(Cl)c(Cl)cc1Cl,-39%
3,CCOCCOC(=O)/C(C#N)=C(\NNc1c(Cl)cc(Cl)cc1Cl)C(C)C,-2.2%

# Tested on: Brassica napus
# Assay: Herbicidal activity against Brassica napus at 1.5 kg/hectare administered postemergence of first true leaf measured after 10 days
# Type: functional
# Details: post-emergence, 240 h
row,Structure (SMILES),inhibition at 1500 g/ha
1,CCOCCOC(=O)/C(C#N)=C(/CC)NNc1cccc(Cl)c1Cl,4.3%
2,CCOCCOC(=O)/C(C#N)=C(/CC)NNc1cc(Cl)c(Cl)cc1Cl,0%
3,CCOCCOC(=O)/C(C#N)=C(\NNc1c(Cl)cc(Cl)cc1Cl)C(C)C,0%

# Tested on: HL-60
# Assay: Antitumor activity against human HL60 cells at 10 uM/L after 72 hrs by MTT assay
# Type: functional
# Details: HL-60, 72 h
row,Structure (SMILES),inhibition at 10 µM
1,CCOCCOC(=O)/C(C#N)=C(/CC)NNc1cccc(Cl)c1Cl,26.8%
2,CCOCCOC(=O)/C(C#N)=C(/CC)NNc1cc(Cl)c(Cl)cc1Cl,11.8%
3,CCOCCOC(=O)/C(C#N)=C(\NNc1c(Cl)cc(Cl)cc1Cl)C(C)C,0%

# Tested on: Digitaria sanguinalis
# Assay: Herbicidal activity against Digitaria sanguinalis at 1.5 kg/hectare administered postemergence of first true leaf measured after 10 days
# Type: functional
# Details: post-emergence, 240 h
row,Structure (SMILES),inhibition at 1500 g/ha
1,CCOCCOC(=O)/C(C#N)=C(/CC)NNc1cccc(Cl)c1Cl,5.4%
2,CCOCCOC(=O)/C(C#N)=C(/CC)NNc1cc(Cl)c(Cl)cc1Cl,0%
3,CCOCCOC(=O)/C(C#N)=C(\NNc1c(Cl)cc(Cl)cc1Cl)C(C)C,17.9%

# Tested on: Fusarium graminearum
# Assay: Fungicidal activity against Gibberella zeae assessed as inhibition of mycelium growth at 50 mg/L after 72 hrs
# Type: functional
# Details: not given
row,Structure (SMILES),inhibition at 50 µg/mL
1,CCOCCOC(=O)/C(C#N)=C(/CC)NNc1cccc(Cl)c1Cl,14.4%
2,CCOCCOC(=O)/C(C#N)=C(/CC)NNc1cc(Cl)c(Cl)cc1Cl,9.6%
3,CCOCCOC(=O)/C(C#N)=C(\NNc1c(Cl)cc(Cl)cc1Cl)C(C)C,4.8%

# Tested on: Botryosphaeria berengeriana
# Assay: Fungicidal activity against Physalospora pyricola assessed as inhibition of mycelium growth at 50 mg/L after 72 hrs
# Type: functional
# Details: not given
row,Structure (SMILES),inhibition at 50 µg/mL
1,CCOCCOC(=O)/C(C#N)=C(/CC)NNc1cccc(Cl)c1Cl,65.3%
2,CCOCCOC(=O)/C(C#N)=C(/CC)NNc1cc(Cl)c(Cl)cc1Cl,36%
3,CCOCCOC(=O)/C(C#N)=C(\NNc1c(Cl)cc(Cl)cc1Cl)C(C)C,6.7%

# Tested on: Alternaria solani
# Assay: Fungicidal activity against Alternaria solani assessed as inhibition of mycelium growth at 50 mg/L after 72 hrs
# Type: functional
# Details: not given
row,Structure (SMILES),inhibition at 50 µg/mL
1,CCOCCOC(=O)/C(C#N)=C(/CC)NNc1cccc(Cl)c1Cl,20%
2,CCOCCOC(=O)/C(C#N)=C(/CC)NNc1cc(Cl)c(Cl)cc1Cl,10%
3,CCOCCOC(=O)/C(C#N)=C(\NNc1c(Cl)cc(Cl)cc1Cl)C(C)C,10%

# Tested on: Amaranthus retroflexus
# Assay: Herbicidal activity against Amaranthus retroflexus at 1.5 kg/hectare administered preemergence of first true leaf measured after 10 days
# Type: functional
# Details: pre-emergence, 240 h
row,Structure (SMILES),inhibition at 1500 g/ha
1,CCOCCOC(=O)/C(C#N)=C(/CC)NNc1cccc(Cl)c1Cl,5.9%
2,CCOCCOC(=O)/C(C#N)=C(/CC)NNc1cc(Cl)c(Cl)cc1Cl,5.9%
3,CCOCCOC(=O)/C(C#N)=C(\NNc1c(Cl)cc(Cl)cc1Cl)C(C)C,0%

# Tested on: Bel-7402
# Assay: Antitumor activity against human Bel7402 cells at 1000 uM/L after 72 hrs by MTT assay
# Type: functional
# Details: Bel-7402, 72 h
row,Structure (SMILES),inhibition at 1000 µM
1,CCOCCOC(=O)/C(C#N)=C(/CC)NNc1cccc(Cl)c1Cl,55.3%
2,CCOCCOC(=O)/C(C#N)=C(/CC)NNc1cc(Cl)c(Cl)cc1Cl,94.5%
3,CCOCCOC(=O)/C(C#N)=C(\NNc1c(Cl)cc(Cl)cc1Cl)C(C)C,84.3%

# Tested on: Medicago sativa
# Assay: Herbicidal activity against Medicago sativa at 1.5 kg/hectare administered postemergence of first true leaf measured after 10 days
# Type: functional
# Details: post-emergence, 240 h
row,Structure (SMILES),inhibition at 1500 g/ha
1,CCOCCOC(=O)/C(C#N)=C(/CC)NNc1cccc(Cl)c1Cl,3.3%
2,CCOCCOC(=O)/C(C#N)=C(/CC)NNc1cc(Cl)c(Cl)cc1Cl,4.7%
3,CCOCCOC(=O)/C(C#N)=C(\NNc1c(Cl)cc(Cl)cc1Cl)C(C)C,21%

# Tested on: HL-60
# Assay: Antitumor activity against human HL60 cells at 1000 uM/L after 72 hrs by MTT assay
# Type: functional
# Details: HL-60, 72 h
row,Structure (SMILES),inhibition at 1000 µM
1,CCOCCOC(=O)/C(C#N)=C(/CC)NNc1cccc(Cl)c1Cl,69.4%
2,CCOCCOC(=O)/C(C#N)=C(/CC)NNc1cc(Cl)c(Cl)cc1Cl,80.4%
3,CCOCCOC(=O)/C(C#N)=C(\NNc1c(Cl)cc(Cl)cc1Cl)C(C)C,80.3%

# Tested on: Brassica napus
# Assay: Herbicidal activity against Brassica napus L. at 1.5 kg/hectare administered preemergence of first true leaf measured after 10 days
# Type: functional
# Details: pre-emergence, 240 h
row,Structure (SMILES),inhibition at 1500 g/ha
1,CCOCCOC(=O)/C(C#N)=C(/CC)NNc1cccc(Cl)c1Cl,0%
2,CCOCCOC(=O)/C(C#N)=C(/CC)NNc1cc(Cl)c(Cl)cc1Cl,0%
3,CCOCCOC(=O)/C(C#N)=C(\NNc1c(Cl)cc(Cl)cc1Cl)C(C)C,0%

# Tested on: Cladosporium cucumerinum
# Assay: Fungicidal activity against Cladosporium cucumerinum assessed as inhibition of mycelium growth at 50 mg/L after 72 hrs
# Type: functional
# Details: not given
row,Structure (SMILES),inhibition at 50 µg/mL
1,CCOCCOC(=O)/C(C#N)=C(/CC)NNc1cccc(Cl)c1Cl,13.9%
2,CCOCCOC(=O)/C(C#N)=C(/CC)NNc1cc(Cl)c(Cl)cc1Cl,13.9%
3,CCOCCOC(=O)/C(C#N)=C(\NNc1c(Cl)cc(Cl)cc1Cl)C(C)C,8.3%

# Tested on: HL-60
# Assay: Antitumor activity against human HL60 cells at 100 uM/L after 72 hrs by MTT assay
# Type: functional
# Details: HL-60, 72 h
row,Structure (SMILES),inhibition at 100 µM
1,CCOCCOC(=O)/C(C#N)=C(/CC)NNc1cccc(Cl)c1Cl,50%
2,CCOCCOC(=O)/C(C#N)=C(/CC)NNc1cc(Cl)c(Cl)cc1Cl,7.3%
3,CCOCCOC(=O)/C(C#N)=C(\NNc1c(Cl)cc(Cl)cc1Cl)C(C)C,20.8%

# Tested on: Amaranthus retroflexus
# Assay: Herbicidal activity against Amaranthus retroflexus at 1.5 kg/hectare administered postemergence of first true leaf measured after 10 days
# Type: functional
# Details: post-emergence, 240 h
row,Structure (SMILES),inhibition at 1500 g/ha
1,CCOCCOC(=O)/C(C#N)=C(/CC)NNc1cccc(Cl)c1Cl,15.6%
2,CCOCCOC(=O)/C(C#N)=C(/CC)NNc1cc(Cl)c(Cl)cc1Cl,15.6%
3,CCOCCOC(=O)/C(C#N)=C(\NNc1c(Cl)cc(Cl)cc1Cl)C(C)C,13.3%

# Tested on: Digitaria sanguinalis
# Assay: Herbicidal activity against Digitaria sanguinalis (L.) Scop. at 1.5 kg/hectare administered preemergence of first true leaf measured after 10 days
# Type: functional
# Details: pre-emergence, 240 h
row,Structure (SMILES),inhibition at 1500 g/ha
1,CCOCCOC(=O)/C(C#N)=C(/CC)NNc1cccc(Cl)c1Cl,0%
2,CCOCCOC(=O)/C(C#N)=C(/CC)NNc1cc(Cl)c(Cl)cc1Cl,3.8%
3,CCOCCOC(=O)/C(C#N)=C(\NNc1c(Cl)cc(Cl)cc1Cl)C(C)C,0%

# Tested on: Medicago sativa
# Assay: Herbicidal activity against Medicago sativa at 1.5 kg/hectare administered preemergence of first true leaf measured after 10 days
# Type: functional
# Details: pre-emergence, 240 h
row,Structure (SMILES),inhibition at 1500 g/ha
1,CCOCCOC(=O)/C(C#N)=C(/CC)NNc1cccc(Cl)c1Cl,0%
2,CCOCCOC(=O)/C(C#N)=C(/CC)NNc1cc(Cl)c(Cl)cc1Cl,0%
3,CCOCCOC(=O)/C(C#N)=C(\NNc1c(Cl)cc(Cl)cc1Cl)C(C)C,0%

# Tested on: Bel-7402
# Assay: Antitumor activity against human Bel7402 cells at 100 uM/L after 72 hrs by MTT assay
# Type: functional
# Details: Bel-7402, 72 h
row,Structure (SMILES),inhibition at 100 µM
1,CCOCCOC(=O)/C(C#N)=C(/CC)NNc1cccc(Cl)c1Cl,24.9%
2,CCOCCOC(=O)/C(C#N)=C(/CC)NNc1cc(Cl)c(Cl)cc1Cl,0%
3,CCOCCOC(=O)/C(C#N)=C(\NNc1c(Cl)cc(Cl)cc1Cl)C(C)C,9%

# Tested on: Bel-7402
# Assay: Antitumor activity against human Bel7402 cells at 10 uM/L after 72 hrs by MTT assay
# Type: functional
# Details: Bel-7402, 72 h
row,Structure (SMILES),inhibition at 10 µM
1,CCOCCOC(=O)/C(C#N)=C(/CC)NNc1cccc(Cl)c1Cl,12.1%
2,CCOCCOC(=O)/C(C#N)=C(/CC)NNc1cc(Cl)c(Cl)cc1Cl,0%
3,CCOCCOC(=O)/C(C#N)=C(\NNc1c(Cl)cc(Cl)cc1Cl)C(C)C,12.7%

# Source: ChEMBL document CHEMBL1136896, “Synthesis and biological evaluation of arylhydrazinocyanoacrylates and N-aryl pyrazolecarboxylates” (2009)
